Laboratory results: patent publication US10597388B2, “Pyridazinone herbicides” (FMC CORPORATION, priority 2014, dated 2020)

Key:
Type in all cases: in vivo
[1] = system: Russian thistle (Salsola kali); assay: Test D controlled growth environment herbicide test, pre- and postemergence
From the text: (§1) Seeds of plant species selected from bluegrass (annual bluegrass, Poa annua), blackgrass (Alopecurus myosuroides), Canada thistle (Cirsium arvense), canarygrass (Phalaris minor), chickweed (common chickweed, Stellaria media), geranium, cutleaf (cutleaf geranium, Geranium dissectum), galium (catchweed bedstraw, Galium aparine), bromegrass, downy (downy bromegrass, Bromus tectorum), field poppy (Papaver rhoeas), field violet (Viola arvensis), foxtail, green (green foxtail, Setaria viridis), deadnettle (henbit deadnettle, Lamium amplexicaule), ryegrass, Italian (Italian ryegrass, Lolium multiflorum), kochia (Kochia scoparia), lambsquarters (Chenopodium album), oilseed rape (Brassica napus), pigweed (Amaranthus retroflexus), chamomile (scentless chamomile, Matricaria inodora), Russian thistle (Salsola kali), speedwell (bird's-eye speedwell, Veronica persica), barley, spring (spring barley, Hordeum vulgare), wheat, spring (spring wheat, Triticum aestivum), buckwheat, wild (wild buckwheat, Polygonum convolvulus), mustard, wild (wild mustard, Sinapis arvensis), oat, wild (wild oat, Avena fatua), radish, wild (wild radish, Raphanus raphanistrum), windgrass (Apera spica-venti), barley, winter (winter barley, Hordeum vulgare), and wheat, winter (winter wheat, Triticum aestivum) were planted into a silt loam soil and treated preemergence with test chemicals formulated in a non-phytotoxic solvent mixture which included a surfactant.
(§2) At the same time, these species were planted in pots containing Redi-Earth® planting medium (Scotts Company, 14111 Scottslawn Road, Marysville, Ohio 43041) comprising spaghnum peat moss, vermiculite, wetting agent and starter nutrients and treated with postemergence applications of the test chemicals formulated in the same manner. Plants ranged in height from 2 to 18 cm (1- to 4-leaf stage). Treated plants and controls were maintained in a controlled growth environment for 14 to 21 d after which time all species were compared to controls and visually evaluated. Plant response ratings, summarized in Table D, are based on a scale of 0 to 100 where 0 is no effect and 100 is complete control. A dash (-) response means no test result.

[2] = system: barley, winter (winter barley, Hordeum vulgare); assay: as above
From the text: as §1, §2

[3] = system: bluegrass (annual bluegrass, Poa annua); assay: as above
From the text: as §1, §2

[4] = system: field violet (Viola arvensis); assay: as above
From the text: as §1, §2

[5] = system: oat, wild (wild oat, Avena fatua); assay: as above
From the text: as §1, §2

[6] = system: pigweed (Amaranthus retroflexus); assay: as above
From the text: as §1, §2

[7] = system: radish, wild (wild radish, Raphanus raphanistrum); assay: as above
From the text: as §1, §2

[8] = system: speedwell (bird's-eye speedwell, Veronica persica); assay: as above
From the text: as §1, §2

[9] = system: wheat, winter (winter wheat, Triticum aestivum); assay: as above
From the text: as §1, §2

[10] = system: windgrass (Apera spica-venti); assay: as above
From the text: as §1, §2

[11] = system: waterhemp_RES2 (ALS & HPPD resistant common waterhemp, Amaranthus rudis); assay: Test E greenhouse herbicide test, postemergence
Outline: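 Visual injury scored 0 (no effect) to 100 (complete control) versus untreated plants, 14 to 21 d after treatment in the greenhouse. Plants were treated postemergence at 1- to 4-leaf stage, 2–18 cm height, in peat-moss/vermiculite medium.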

[12] = Postemergence, 31 g ai/ha, scale 0 to 100 (0 no effect, 100 complete control)
[13] = Postemergence, 125 g ai/ha, visual rating on scale 0 (no effect) to 100 (complete control), 14 to 21 d
[14] = Postemergence, 250 g ai/ha, scale 0 to 100 (0 no effect, 100 complete control)
[15] = Preemergence, 62 g ai/ha, scale 0 to 100 (0 no effect, 100 complete control)
[16] = Preemergence, 125 g ai/ha, scale 0 to 100 (0 no effect, 100 complete control)
[17] = Preemergence, 250 g ai/ha, scale 0 to 100, 0 no effect, 100 complete control
[18] = postemergence, 62 g ai/ha, scale 0 to 100, 0 no effect, 100 complete control

## Cc1nn(C)c(=O)c(-c2ccc(F)c3ccccc23)c1O [Compound 41]
[1]; [12]
  Russian Thistle plant response rating: 70
[1]; [13]
  Plant response rating, Russian Thistle: 75
[1]; [14]
  Plant response rating, Russian Thistle: 75
[1]; Preemergence, 31 g ai/ha
  Plant response rating (scale of 0 to 100), Russian Thistle: 25
[1]; [15]
  Plant response rating, Russian Thistle: 20
[1]; [16]
  Plant response rating, Russian Thistle: 40
[1]; [17]
  Plant response rating, Russian Thistle: 70
[1]; [18]
  Plant response rating, Russian Thistle: 70
[2]; [12]
  Plant response rating, Barley, Winter: 0
[2]; [13]
  Plant response rating, Barley, Winter: 5
[2]; [14]
  Plant response rating, Barley, Winter: 35
[2]; Preemergence, 31 g ai/ha
  Plant response rating (scale of 0 to 100), Barley, Winter: 0
[2]; [15]
  Plant response rating, Barley, Winter: 20
[2]; [16]
  Plant response rating, Barley, Winter: 25
[2]; [17]
  Barley, Winter plant response rating: 30
[2]; [18]
  Plant response rating, Barley, Winter: 5
[3]; [12]
  Bluegrass plant response rating: 15
[3]; [13]
  Plant response rating, Bluegrass: 25
[3]; [14]
  Plant response rating, Bluegrass: 35
[3]; Preemergence, 31 g ai/ha
  Plant response rating (scale of 0 to 100), Bluegrass: 70
[3]; [15]
  Plant response rating, Bluegrass: 75
[3]; [16]
  Plant response rating, Bluegrass: 80
[3]; [17]
  Bluegrass plant response rating: 90
[3]; [18]
  Plant response rating, Bluegrass: 30
[4]; [12]
  Field Violet plant response rating: 100
[4]; [13]
  Plant response rating, Field Violet: 90
[4]; [14]
  Plant response rating, Field Violet: 100
[4]; Preemergence, 31 g ai/ha
  Plant response rating (scale of 0 to 100), Field Violet: 95
[4]; [15]
  Plant response rating, Field Violet: 90
[4]; [16]
  Plant response rating, Field Violet: 100
[4]; [17]
  Plant response rating, Field Violet: 100
[4]; [18]
  Plant response rating, Field Violet: 90
[5]; [12]
  Oat, Wild plant response rating: 70
[5]; [13]
  Plant response rating, Oat, Wild: 85
[5]; [14]
  Plant response rating, Oat, Wild: 85
[5]; Preemergence, 31 g ai/ha
  Plant response rating (scale of 0 to 100), Oat, Wild: 85
[5]; [15]
  Plant response rating, Oat, Wild: 90
[5]; [16]
  Plant response rating, Oat, Wild: 90
[5]; [17]
  Plant response rating, Oat, Wild: 95
[5]; [18]
  Plant response rating, Oat, Wild: 80
[6]; [12]
  Pigweed plant response rating: 75
[6]; [13]
  Plant response rating, Pigweed: 80
[6]; [14]
  Plant response rating, Pigweed: 85
[6]; Preemergence, 31 g ai/ha
  Plant response rating (scale of 0 to 100), Pigweed: 25
[6]; [15]
  Plant response rating, Pigweed: 75
[6]; [16]
  Plant response rating, Pigweed: 100
[6]; [17]
  Plant response rating, Pigweed: 100
[6]; [18]
  Plant response rating, Pigweed: 80
[7]; [12]
  Radish, Wild plant response rating: 90
[7]; [13]
  Plant response rating, Radish, Wild: 90
[7]; [14]
  Plant response rating, Radish, Wild: 95
[7]; Preemergence, 31 g ai/ha
  Plant response rating (scale of 0 to 100), Radish, Wild: 25
[7]; [15]
  Plant response rating, Radish, Wild: 85
[7]; [16]
  Plant response rating, Radish, Wild: 95
[7]; [17]
  Plant response rating, Radish, Wild: 100
[7]; [18]
  Plant response rating, Radish, Wild: 80
[8]; [12]
  Speedwell plant response rating: 100
[8]; [13]
  Plant response rating, Speedwell: 100
[8]; [14]
  Plant response rating, Speedwell: 100
[8]; Preemergence, 31 g ai/ha
  Plant response rating (scale of 0 to 100), Speedwell: 100
[8]; [15]
  Plant response rating, Speedwell: 95
[8]; [16]
  Plant response rating, Speedwell: 100
[8]; [17]
  Plant response rating, Speedwell: 100
[8]; [18]
  Plant response rating, Speedwell: 100
[9]; [12]
  Wheat, Winter plant response rating: 10
[9]; [13]
  Plant response rating, Wheat, Winter: 25
[9]; [14]
  Plant response rating, Wheat, Winter: 35
[9]; Preemergence, 31 g ai/ha
  Plant response rating (scale of 0 to 100), Wheat, Winter: 10
[9]; [15]
  Plant response rating, Wheat, Winter: 20
[9]; [16]
  Plant response rating, Wheat, Winter: 45
[9]; [17]
  Plant response rating, Wheat, Winter: 75
[9]; [18]
  Plant response rating, Wheat, Winter: 20
[10]; [12]
  Windgrass plant response rating: 40
[10]; [13]
  Plant response rating, Windgrass: 60
[10]; [14]
  Plant response rating, Windgrass: 75
[10]; Preemergence, 31 g ai/ha
  Plant response rating (scale of 0 to 100), Windgrass: 70
[10]; [15]
  Plant response rating, Windgrass: 75
[10]; [16]
  Plant response rating, Windgrass: 80
[10]; [17]
  Plant response rating, Windgrass: 95
[10]; [18]
  Plant response rating, Windgrass: 55
[11]; 31 g ai/ha, visual, scale 0 no effect to 100 complete control
  Plant response rating, Waterhemp_RES2: 20
[11]; 62 g ai/ha, scale 0 to 100 (0 no effect, 100 complete control)
  Plant response rating, Waterhemp_RES2: 80
[11]; 125 g ai/ha, scale 0 to 100 (0 no effect, 100 complete control)
  Plant response rating, Waterhemp_RES2: 80
[11]; 250 g ai/ha, scale 0 to 100 (0 no effect, 100 complete control)
  Plant response rating, Waterhemp_RES2: 85
